# Test results taken from PubChem BioAssay (NCI).
#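 The concentration for 50% growth inhibition is given as GI50. TGI marks complete inhibition of growth.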
# Key:
# Assay in all cases: NCI-60 cell line screen, 384-well format
# SW-620 colon = test system: SW-620 colon
# SF-539 CNS = test system: SF-539 CNS
# MDA-MB-468 breast = test system: MDA-MB-468 breast
# OVCAR-4 ovarian = test system: OVCAR-4 ovarian
# CAKI-1 renal = test system: CAKI-1 renal
# MALME-3M melanoma = test system: MALME-3M melanoma
# NCI-H322M lung = test system: NCI-H322M lung
# OVCAR-3 ovarian = test system: OVCAR-3 ovarian
# SNB-19 CNS = test system: SNB-19 CNS
# RXF 393 renal = test system: RXF 393 renal
# OVCAR-8 ovarian = test system: OVCAR-8 ovarian
# HCT-15 colon = test system: HCT-15 colon
# NCI-H522 lung = test system: NCI-H522 lung
# BT-549 breast = test system: BT-549 breast
# ACHN renal = test system: ACHN renal
# COLO 205 colon = test system: COLO 205 colon
# UO-31 renal = test system: UO-31 renal
# HCC-2998 colon = test system: HCC-2998 colon
# SF-268 CNS = test system: SF-268 CNS
# NCI/ADR-RES ovarian = test system: NCI/ADR-RES ovarian
# HOP-62 NSCLC = test system: HOP-62 NSCLC
# A498 renal = test system: A498 renal
# HS 578T breast = test system: HS 578T breast
# A549 NSCLC = test system: A549 NSCLC
# LOX IMVI melanoma = test system: LOX IMVI melanoma
# RPMI-8226 leukemia = test system: RPMI-8226 leukemia
# HOP-92 NSCLC = test system: HOP-92 NSCLC
# PC-3 prostate = test system: PC-3 prostate
# T-47D breast = test system: T-47D breast
# HT29 colon = test system: HT29 colon
# NCI-H226 lung = test system: NCI-H226 lung
# SN12C renal = test system: SN12C renal
# MDA-MB-435 melanoma = test system: MDA-MB-435 melanoma
# K-562 leukemia = test system: K-562 leukemia
# MCF7 breast = test system: MCF7 breast
# SK-OV-3 ovarian = test system: SK-OV-3 ovarian
# M14 melanoma = test system: M14 melanoma
# KM12 colon = test system: KM12 colon
# U251 glioblastoma = test system: U251 glioblastoma
# 786-0 renal = test system: 786-0 renal
# MOLT-4 leukemia = test system: MOLT-4 leukemia
# SK-MEL-5 melanoma = test system: SK-MEL-5 melanoma
# SK-MEL-28 melanoma = test system: SK-MEL-28 melanoma
# DU-145 prostate = test system: DU-145 prostate
# UACC-62 melanoma = test system: UACC-62 melanoma
# SR leukemia = test system: SR leukemia
# SF-295 CNS = test system: SF-295 CNS
# MDA-MB-231 breast = test system: MDA-MB-231 breast
# EKVX NSCLC = test system: EKVX NSCLC
# TK-10 renal = test system: TK-10 renal
# NCI-H23 lung = test system: NCI-H23 lung
# IGROV1 ovarian = test system: IGROV1 ovarian
# SNB-75 CNS = test system: SNB-75 CNS
# HL-60(TB) leukemia = test system: HL-60(TB) leukemia
# UACC-257 melanoma = test system: UACC-257 melanoma
# NCI-H460 NSCLC = test system: NCI-H460 NSCLC
# HCT-116 colon = test system: HCT-116 colon
# CCRF-CEM leukemia = test system: CCRF-CEM leukemia
structure (smiles),measurement,setting,value
C=CC(=O)N[C@@H]1CN(c2nc(Nc3cn(C)nc3OC)c3ncn(C)c3n2)C[C@H]1F,GI50,SW-620 colon,24.4 µM
same,TGI,SW-620 colon,62.2 µM
same,GI50,SF-539 CNS,29.9 µM
same,TGI,SF-539 CNS,89.6 µM
same,GI50,MDA-MB-468 breast,0.0291 µM
same,TGI,MDA-MB-468 breast,0.114 µM
same,GI50,OVCAR-4 ovarian,49.8 µM
same,TGI,OVCAR-4 ovarian,> 100 µM
same,GI50,CAKI-1 renal,1.26 µM
same,TGI,CAKI-1 renal,> 100 µM
same,GI50,MALME-3M melanoma,17.5 µM
same,TGI,MALME-3M melanoma,60.2 µM
same,GI50,NCI-H322M lung,0.0896 µM
same,TGI,NCI-H322M lung,12.7 µM
same,GI50,OVCAR-3 ovarian,12.3 µM
same,TGI,OVCAR-3 ovarian,37.2 µM
same,GI50,SNB-19 CNS,30 µM
same,TGI,SNB-19 CNS,> 100 µM
same,GI50,RXF 393 renal,24.8 µM
same,TGI,RXF 393 renal,83.8 µM
same,GI50,OVCAR-8 ovarian,19.5 µM
same,TGI,OVCAR-8 ovarian,58.4 µM
same,GI50,HCT-15 colon,37.1 µM
same,TGI,HCT-15 colon,> 100 µM
same,GI50,NCI-H522 lung,0.0389 µM
same,TGI,NCI-H522 lung,15.7 µM
same,GI50,BT-549 breast,25.4 µM
same,TGI,BT-549 breast,70.9 µM
same,GI50,ACHN renal,1.9 µM
same,TGI,ACHN renal,> 100 µM
same,GI50,COLO 205 colon,23 µM
same,TGI,COLO 205 colon,53.8 µM
same,GI50,UO-31 renal,26.3 µM
same,TGI,UO-31 renal,> 100 µM
same,GI50,HCC-2998 colon,20.9 µM
same,TGI,HCC-2998 colon,50 µM
same,GI50,SF-268 CNS,29 µM
same,TGI,SF-268 CNS,> 100 µM
same,GI50,NCI/ADR-RES ovarian,> 100 µM
same,TGI,NCI/ADR-RES ovarian,> 100 µM
same,GI50,HOP-62 NSCLC,31.9 µM
same,TGI,HOP-62 NSCLC,> 100 µM
same,GI50,A498 renal,27.6 µM
same,TGI,A498 renal,> 100 µM
same,GI50,HS 578T breast,21.5 µM
same,TGI,HS 578T breast,55.9 µM
same,GI50,A549 NSCLC,21.4 µM
same,TGI,A549 NSCLC,> 100 µM
same,GI50,LOX IMVI melanoma,34.6 µM
same,TGI,LOX IMVI melanoma,> 100 µM
same,GI50,RPMI-8226 leukemia,18 µM
same,TGI,RPMI-8226 leukemia,36.7 µM
same,GI50,HOP-92 NSCLC,23.4 µM
same,TGI,HOP-92 NSCLC,> 100 µM
same,GI50,PC-3 prostate,39.4 µM
same,TGI,PC-3 prostate,> 100 µM
same,GI50,T-47D breast,20.7 µM
same,TGI,T-47D breast,> 100 µM
same,GI50,HT29 colon,20.5 µM
same,TGI,HT29 colon,54.4 µM
same,GI50,NCI-H226 lung,20.2 µM
same,TGI,NCI-H226 lung,62.2 µM
same,GI50,SN12C renal,34.2 µM
same,TGI,SN12C renal,> 100 µM
same,GI50,MDA-MB-435 melanoma,17.2 µM
same,TGI,MDA-MB-435 melanoma,34.3 µM
same,GI50,K-562 leukemia,23.2 µM
same,TGI,K-562 leukemia,52 µM
same,GI50,MCF7 breast,18 µM
same,TGI,MCF7 breast,73.7 µM
same,GI50,SK-OV-3 ovarian,12.2 µM
same,TGI,SK-OV-3 ovarian,> 100 µM
same,GI50,M14 melanoma,16 µM
same,TGI,M14 melanoma,41.8 µM
same,GI50,KM12 colon,39.2 µM
same,TGI,KM12 colon,> 100 µM
same,GI50,U251 glioblastoma,33.2 µM
same,TGI,U251 glioblastoma,> 100 µM
same,GI50,786-0 renal,37.3 µM
same,TGI,786-0 renal,> 100 µM
same,GI50,MOLT-4 leukemia,16.6 µM
same,TGI,MOLT-4 leukemia,30.8 µM
same,GI50,SK-MEL-5 melanoma,19.2 µM
same,TGI,SK-MEL-5 melanoma,49.4 µM
same,GI50,SK-MEL-28 melanoma,28.5 µM
same,TGI,SK-MEL-28 melanoma,> 100 µM
same,GI50,DU-145 prostate,13.8 µM
same,TGI,DU-145 prostate,49.1 µM
same,GI50,UACC-62 melanoma,23.1 µM
same,TGI,UACC-62 melanoma,> 100 µM
same,GI50,SR leukemia,1.52 µM
same,TGI,SR leukemia,3.2 µM
same,GI50,SF-295 CNS,41.5 µM
same,TGI,SF-295 CNS,> 100 µM
same,GI50,MDA-MB-231 breast,24.3 µM
same,TGI,MDA-MB-231 breast,98.4 µM
same,GI50,EKVX NSCLC,0.338 µM
same,TGI,EKVX NSCLC,24.9 µM
same,GI50,TK-10 renal,0.319 µM
same,TGI,TK-10 renal,39.1 µM
same,GI50,NCI-H23 lung,16.2 µM
same,TGI,NCI-H23 lung,35.6 µM
same,GI50,IGROV1 ovarian,3.27 µM
same,TGI,IGROV1 ovarian,30.3 µM
same,GI50,SNB-75 CNS,22.9 µM
same,TGI,SNB-75 CNS,59.9 µM
same,GI50,HL-60(TB) leukemia,12.3 µM
same,TGI,HL-60(TB) leukemia,25.1 µM
same,GI50,UACC-257 melanoma,33.6 µM
same,TGI,UACC-257 melanoma,> 100 µM
same,GI50,NCI-H460 NSCLC,21.9 µM
same,TGI,NCI-H460 NSCLC,42.1 µM
same,GI50,HCT-116 colon,33.4 µM
same,TGI,HCT-116 colon,> 100 µM
same,GI50,CCRF-CEM leukemia,15.5 µM
same,TGI,CCRF-CEM leukemia,29.2 µM
